According to paper PMC7802075 (ACS Infectious Diseases, 2020):
Where a name gives a salt, the structure may show the parent alone. Read-outs that look alike come from different tables or passages of the source.

Target: T1, LmjIPCS (inositol phosphorylceramide synthase from L. major) (Leishmania major, UniProt E9AFX2)
T1 sequence (E9AFX2 1-338): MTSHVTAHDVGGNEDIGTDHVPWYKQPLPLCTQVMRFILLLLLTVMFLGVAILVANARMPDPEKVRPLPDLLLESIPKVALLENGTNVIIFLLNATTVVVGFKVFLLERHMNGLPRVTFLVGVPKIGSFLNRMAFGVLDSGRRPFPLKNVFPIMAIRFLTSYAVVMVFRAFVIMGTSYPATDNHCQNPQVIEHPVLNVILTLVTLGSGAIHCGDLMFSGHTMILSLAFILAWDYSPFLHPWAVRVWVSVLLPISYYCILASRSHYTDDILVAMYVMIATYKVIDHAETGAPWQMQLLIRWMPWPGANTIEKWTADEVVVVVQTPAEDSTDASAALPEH
Assay: biochemical
Assay type: biochemical
Design: inhibition: dose or concentration left out as unconfirmed
Settings: for inhibition at 20000 µM: read-out: 20mM inhibition LmjIPCS; for inhibition: read-out: inhibition LmjIPCS

[1] = NINDS set screen, single concentration printed as 20mM

SMILES: COc1cc([C@@H]2c3cc4c(cc3[C@H](O)[C@H]3COC(=O)[C@H]23)OCO4)cc(OC)c1OC [PODOFILOX]
- inhibition at 20000 µM: 21%

SMILES: Nc1ccc(C(=O)[O-])cc1.[K+] [POTASSIUM p-AMINOBENZOATE]
- 20mM inhibition LmjIPCS: 40%

SMILES: C[n+]1ccccc1/C=N/O [PRALIDOXIME MESYLATE]
- inhibition at 20000 µM: 9%

SMILES: CC[C@H](C)C(=O)O[C@H]1C[C@H](O)C=C2C=C[C@H](C)[C@H](CC[C@@H](O)C[C@@H](O)CC(=O)O)[C@H]21 [PRAVASTATIN]
- inhibition: 28%

SMILES: O=C(C1CCCCC1)N1CC(=O)N2CCc3ccccc3C2C1 (stereo not shown) [PRAZIQUANTEL]
- inhibition: -3.78%

SMILES: CC(=O)OCC(=O)[C@@]1(O)CC[C@H]2[C@@H]3CCC4=CC(=O)C=C[C@]4(C)[C@H]3[C@@H](O)C[C@@]21C [PREDNISOLONE ACETATE]
- inhibition at 20000 µM: 25%

SMILES: C[C@]12C=CC(=O)C=C1CC[C@@H]1[C@@H]2[C@@H](O)C[C@@]2(C)[C@H]1CC[C@]2(O)C(=O)CO [PREDNISOLONE]
- inhibition: 21%

SMILES: C[C@]12C=CC(=O)C=C1CC[C@@H]1[C@@H]2C(=O)C[C@@]2(C)[C@H]1CC[C@]2(O)C(=O)CO [PREDNISONE]
- inhibition: -4%

SMILES: CC(C)C[C@H](CN)CC(=O)O [PREGABALIN]
- inhibition at 20000 µM: 12%

SMILES: CC(=O)[C@H]1CC[C@H]2[C@@H]3CC=C4C[C@@H](O)CC[C@]4(C)[C@H]3CC[C@]12C [PREGNENOLONE]
- 20mM inhibition LmjIPCS [1]: 52%

SMILES: OC(CCN1CCCCC1)(c1ccccc1)c1ccccc1 [PRIDINOL]
- inhibition (NINDS set screen): 27%

SMILES: CCCNC(C)C(=O)Nc1ccccc1C (stereo not shown) [PRILOCAINE]
- 20mM inhibition LmjIPCS: 34%

SMILES: COc1cc(NC(C)CCCN)c2ncccc2c1 (stereo not shown) [PRIMAQUINE]
- 20mM inhibition LmjIPCS: 69%

SMILES: CCC1(c2ccccc2)C(=O)NCNC1=O [PRIMIDONE]
- inhibition at 20000 µM: -1.2%

SMILES: COC(=O)[C@]1(C)CC[C@]2(C)CC[C@]3(C)C4=CC=C5C(=CC(=O)C(O)=C5C)[C@]4(C)CC[C@@]3(C)[C@@H]2C1 [PRISTIMERIN]
- 20mM inhibition LmjIPCS: 62%

SMILES: CCCC(C(=O)OCCN(CC)CC)(c1ccccc1)c1ccccc1 [PROADIFEN]
- 20mM inhibition LmjIPCS [1]: 36%

SMILES: CCCN(CCC)S(=O)(=O)c1ccc(C(=O)O)cc1 [PROBENECID]
- inhibition (NINDS set screen): 13%

SMILES: CC(C)(Sc1cc(C(C)(C)C)c(O)c(C(C)(C)C)c1)Sc1cc(C(C)(C)C)c(O)c(C(C)(C)C)c1 [PROBUCOL]
- inhibition at 20000 µM: 25%

SMILES: CCN(CC)CCNC(=O)c1ccc(N)cc1 [PROCAINAMIDE]
- inhibition: 19%

SMILES: OC(CCN1CCCC1)(c1ccccc1)C1CCCCC1 (stereo not shown) [PROCYCLIDINE]
- inhibition at 20000 µM: 22%

SMILES: CC(=O)[C@H]1CC[C@H]2[C@@H]3CCC4=CC(=O)CC[C@]4(C)[C@H]3CC[C@]12C [PROGESTERONE]
- 20mM inhibition LmjIPCS: 65%

SMILES: CCCN(CCC)C(=O)C(CCC(=O)O)NC(=O)c1ccccc1 (stereo not shown) [PROGLUMIDE]
- inhibition at 20000 µM: 15%

SMILES: CC(C)NCC(O)c1ccc2ccccc2c1 (stereo not shown) [PRONETALOL]
- 20mM inhibition LmjIPCS [1]: 60%

SMILES: CCCNCC(O)COc1ccccc1C(=O)CCc1ccccc1 (stereo not shown) [PROPAFENONE]
- 20mM inhibition LmjIPCS: 61%

SMILES: CC(C)[N+](C)(CCOC(=O)C1c2ccccc2Oc2ccccc21)C(C)C [PROPANTHELINE BROMIDE]
- 20mM inhibition LmjIPCS [1]: 35%

SMILES: CCCc1cc(C(N)=S)ccn1 [PROTHIONAMIDE]
- inhibition (screening of NINDS set, sheet Screen 1): 9%

SMILES: CN[C@@H](C)[C@@H](O)c1ccccc1 [PSEUDOEPHEDRINE]
- inhibition at 20000 µM: 2.14%

SMILES: COc1ccc(C[C@H](N)C(=O)N[C@H]2[C@@H](O)[C@H](n3cnc4c(N(C)C)ncnc43)O[C@@H]2CO)cc1 [PUROMYCIN]
- inhibition: 20%

SMILES: O=C1c2ccccc2C(=O)c2c(O)c(O)cc(O)c21 [PURPURIN]
- 20mM inhibition LmjIPCS: 35%

SMILES: NC(=O)c1cnccn1 [PYRAZINAMIDE]
- inhibition (NINDS set screen): -17%

SMILES: CN(C)C(=O)Oc1ccc[n+](C)c1 [PYRIDOSTIGMINE BROMIDE]
- inhibition at 20000 µM: -5.55%

SMILES: COc1ccc(CN(CCN(C)C)c2ccccn2)cc1 [PYRILAMINE]
- inhibition: 5.27%

SMILES: [O-][n+]1ccccc1S [PYRITHIONE ZINC]
- inhibition at 20000 µM: 10%

SMILES: CCC1(CC)C(=O)C=CNC1=O [PYRITHYLDIONE]
- 20mM inhibition LmjIPCS: 52%

SMILES: O=c1c(O)c(-c2ccc(O)c(O)c2)oc2cc(O)cc(O)c12 [QUERCETIN]
- inhibition at 20000 µM: 3.45%

SMILES: C[C@@H]1O[C@@H](Oc2c(-c3ccc(O)c(O)c3)oc3cc(O)cc(O)c3c2=O)[C@H](O)[C@H](O)[C@H]1O [QUERCITRIN]
- inhibition at 20000 µM: 6.42%

SMILES: CCN(CC)CCCC(C)Nc1c2ccc(Cl)cc2nc2ccc(OC)cc12 (stereo not shown) [QUINACRINE]
- 20mM inhibition LmjIPCS: 59%
